Assays:
Type in all cases: in vivo, mouse
[1] = tested on: GAA-KO mice; experiment: Glycogen content in muscles, ERT plus clenbuterol or albuterol; settings: ERT plus albuterol 30 μg/ml drinking water
Description: FIG. 8A-8C depicts increased GAA uptake and increased glycogen clearance in GAA-KO mice following clenbuterol treatment and ERT. […] GAA-KO mice were administered four weekly doses of rhGAA (20 mg/kg), and treated with clenbuterol (n=6) or untreated (n=5). […] Mean+/−standard deviation are shown. Statistically significant differences indicated (*=p<0.05; **=p<0.01).
GAA-KO mice were treated with weekly rhGAA (20 mg/kg): with medium clenbuterol, […] (n=6), with low clenbuterol, 1.3 mg/ml (n=6), with albuterol 30 mg/ml (n=4), or without drug treatment (n=3). Drugs were administered in the drinking water. Mean+/−s.d. shown. Statistically significant differences indicated (*=p<0.05; **=p<0.01).
(§1) For in vivo analysis of AAV vectors, stocks were administered intravenously (via the retroorbital sinus) in 3 month-old and 15 month-old GAA-KO mice, and to 3 month-old tolerant GAA-KO and DKO mice. Clenbuterol (30 μg/ml) was administered to groups of 3 month-old vector-injected and mock-injected male GAA-KO mice in drinking water for 28 days. At the indicated time points post-injection, tissue samples were obtained and processed as described below. All animal procedures were done in accordance with Duke University Institutional Animal Care and Use Committee-approved guidelines. GAA activity and glycogen content were analyzed essentially as described (Sun et al., Mol. Ther., 2005, 11:889-898; Sun et al., Mol. Ther., 2005, 11: 57-65). Rotarod testing was performed essentially as described (Sun, B. D. et al. 2005). Western blotting of hGAA was performed essentially as described (Amalfitano et al., Proc. Natl. Acad. Sci. USA, 1999, 96: 8861-8866) using the hGAA monoclonal antibody (courtesy of Genzyme Corp., Framingham, Mass.) and the CI-MPR antibody (catalog number GTX28093; Gene Tex, Irvine, Calif.).
The efficacy from gene therapy was increased by β2 agonist stimulation from clenbuterol treatment, and this benefit might be expected to affect ERT in Pompe disease, as well. Therefore, groups of 3 month-old GAA-KO mice were treated with four weekly doses of rhGAA (20 mg/kg), with or without concurrent clenbuterol treatment.

[2] = tested on: immune tolerant GAA-KO mice; experiment: Rotarod testing, ERT plus β2 agonist (Example 6); settings: one week later (than 4 weeks); albuterol 30 mg/l drinking water plus ERT v. ERT alone
Description: GAA-KO mice were administered four weekly doses of rhGAA (20 mg/kg), and treated with medium dose clenbuterol (n=7), albuterol (n=4) or untreated (n=6 or 3). […] Mean+/−standard deviation are shown. P values indicate statistically significant differences (lines).
Two β2 agonists were evaluated in combination with ERT, clenbuterol and albuterol. The dose of clenbuterol was reduced 5-fold from the concentration used in Example 4, to 6 mg/l in drinking water, while albuterol was evaluated at the higher dose (30 mg/l in drinking water). Groups of 3 month-old immune tolerant GAA-KO mice (Raben et al., Human Mol. Genet., 2001, 10:2039-2047) were treated with four weekly doses of rhGAA (20 mg/kg body weight), with or without concurrent β2 agonist treatment.
Mice were sacrificed 7 days after the last injection. Selected tissues were collected for GAA enzyme activity and glycogen content analyses. […] GAA activity and glycogen content analyses, Rotarod testing, and Western blot detection of CI-MPR was performed essentially as described (Koeberl et al., Mol. Genet. Metab., 2011, 103:107-112. Wire hang testing was performed with a 0.5 cm mesh hardware cloth fixed to an 8 by 10 inch frame. Mice were placed on the wire mesh, which was slowly inverted 6 inches over a cage containing paper bedding. The latency, or time until the mouse fell into the cage, was recorded.

[3] = tested on: immune tolerant GAA-KO mice; experiment: Histopathology of brain, glycogen staining; settings: cerebellum; in comparison with ERT alone
Description: Histopathology was performed to examine brain involvement, and glycogen accumulations were detected in the cerebellum with ERT alone. Albuterol and clenbuterol each reduced the glycogen staining in the cerebellum, in comparison with ERT alone.

[4] = tested on: immune tolerant GAA-KO mice; experiment: Glycogen content in tissues, ERT plus β2 agonist (Example 6)
Description: (§2) Male GAA-KO mice were administered four weekly doses of 20 mg/kg body weight of rhGAA and sacrificed one week following the last injection. Groups of mice were treated with clenbuterol (n=6), albuterol (n=4) or untreated (n=6). Mice were euthanized for tissue analysis 5 weeks after initiation of ERT.
(§3) Cerebral and cerebellar hemispheres were analyzed 5 weeks following the initiation of ERT. Groups of mice were treated with clenbuterol (n=6), albuterol (n=4) or untreated (n=6).
(§4) Two β2 agonists were evaluated in combination with ERT, clenbuterol and albuterol. […] Groups of 3 month-old immune tolerant GAA-KO mice (Raben et al., Human Mol. Genet., 2001, 10:2039-2047) were treated with four weekly doses of rhGAA (20 mg/kg body weight), with or without concurrent β2 agonist treatment.
(§5) Mice were sacrificed 7 days after the last injection. Selected tissues were collected for GAA enzyme activity and glycogen content analyses. All animal procedures were done in accordance with Duke University Institutional Animal Care and Use Committee-approved guidelines. GAA activity and glycogen content analyses, Rotarod testing, and Western blot detection of CI-MPR was performed essentially as described (Koeberl et al., Mol. Genet. Metab., 2011, 103:107-112. Wire hang testing was performed with a 0.5 cm mesh hardware cloth fixed to an 8 by 10 inch frame. Mice were placed on the wire mesh, which was slowly inverted 6 inches over a cage containing paper bedding. The latency, or time until the mouse fell into the cage, was recorded.

[5] = tested on: immune tolerant GAA-KO mice; experiment: GAA activity in tissues, ERT plus β2 agonist (Example 6)
Description: as §2, §3, §4, §5

[6] = tested on: DKO mice; experiment: Glycogen clearance after rhGAA in DKO mice
Description: (§6) CI-MPR-KO mice were generated using a muscle-specific promoter (muscle creatine kinase; CK) and the cre/loxP conditional knock out system essentially as described previously (Wylie et al., Am. J. Pathol., 2003, 162: 321-328). The muscle-specific CI-MPR-KO mice were crossed with GAA-KO mice to generate muscle specific DKO mice). This mouse colony was subsequently screened to be GAA−/−, M6PR flox/flox and MCK-Cre positive. These DKO mice and age matched Pompe mice were administered four weekly doses of 20 or 100 mg/kg rhGAA and sacrificed 3 days after the last injection. Selected tissues were collected for GAA enzyme activity levels, glycogen content depletion and Western blot analysis. Pompe and DKO mice injected with vehicle were used as controls.
as §1
(§7) To further understand the role of CI-MPR in recombinant human GAA (rhGAA) uptake and glycogen clearance specifically in Pompe disease, muscle-specific CI-MPR-KO mice were crossed with GAA-KO (Pompe disease) mice. […]

[7] = tested on: GAA-KO mice; experiment: Glycogen clearance after rhGAA in GAA-KO (Pompe) mice
Description: as §6, §1, §7

[8] = tested on: CI-MPR-KO/GAA-KO (DKO) mice v. GAA-KO (Pompe disease) mice; experiment: GAA enzyme activity in tissues after rhGAA administration, DKO v. GAA-KO mice; settings: for GAA decrease in DKO v. GAA-KO (%): rhGAA four weekly doses, dose not given
Description: as §6, §1
(§8) To further understand the role of CI-MPR in recombinant human GAA (rhGAA) uptake and glycogen clearance specifically in Pompe disease, muscle-specific CI-MPR-KO mice were crossed with GAA-KO (Pompe disease) mice. The DKO mice were administered four weekly doses of 20 mg/kg and 100 mg/kg body weight of recombinant human rhGAA and sacrificed three days after the last injection to evaluate GAA enzyme levels and glycogen depletion in the target tissues. […]

[9] = tested on: CI-MPR-KO/GAA-KO (DKO) mice v. GAA-KO (Pompe disease) mice; experiment: Glycogen content in tissues after rhGAA administration, DKO v. GAA-KO mice; settings: rhGAA four weekly doses, dose not given
Description: as §6, §1, §8

CC(C)(C)NCC(O)c1ccc(O)c(CO)c1 (stereo not drawn) [albuterol]
glycogen content of the quadriceps [1]: trend toward decreasing
Rotarod latency [2]: increased latency
glycogen staining (histopathology) [3]: reduced
Glycogen content ([4]; cerebellum, β2 agonist plus ERT v. ERT alone): reduced significantly
Glycogen content ([4]; liver, albuterol plus ERT v. ERT alone): significantly reduced
Glycogen content ([4]; quadriceps, albuterol plus ERT v. ERT alone): significantly reduced
GAA activity ([5]; cerebellum, 5 weeks after initiation of ERT, clenbuterol p=0.08, albuterol p=0.09): trend toward increased GAA activity
GAA activity ([5]; tibialis anterior only, albuterol plus ERT v. ERT alone): increased
GAA activity in tissues with reduced glycogen content ([5]; β2 agonist plus ERT v. ERT alone): unchanged

rhGAA: recombinant human acid α-glucosidase used for enzyme replacement therapy (ERT) in Pompe disease
glycogen clearance ([6]; DKO mouse heart, rhGAA 100 mg/kg): 95%
glycogen clearance ([6]; heart of DKO mice, rhGAA 20 mg/kg): 7%
glycogen depletion ([6]; quadriceps of DKO mice, rhGAA 20 mg/kg): 8%
glycogen clearance ([7]; GAA-KO mouse heart, rhGAA 100 mg/kg): 99%
glycogen clearance ([7]; heart of Pompe mice, rhGAA 20 mg/kg): 77%
glycogen depletion ([7]; quadriceps of GAA-KO mice, rhGAA 20 mg/kg): 55%
GAA decrease in DKO v. GAA-KO (%) ([8]; Diaphragm): 2%
GAA decrease in DKO v. GAA-KO (%) ([8]; Gastrocnemius): 72%
GAA decrease in DKO v. GAA-KO (%) ([8]; Heart): 47%
GAA decrease in DKO v. GAA-KO (%) ([8]; Quadriceps): 79%
GAA decrease in DKO v. GAA-KO (%) ([8]; Triceps): 76%
reduced rhGAA uptake in DKO mice as compared with Pompe mice ([8]; heart, 100 mg/kg rhGAA): 50%
rhGAA uptake (enzyme activity) in DKO v. GAA-KO mice ([8]; skeletal tissues (quadriceps, triceps, gastrocnemius), 20 and 100 mg/kg): significantly decreased uptake
Glycogen increase in DKO v. GAA-KO (%) ([9]; Diaphragm): 192%
Glycogen increase in DKO v. GAA-KO (%) ([9]; Gastrocnemius): 340%
Glycogen increase in DKO v. GAA-KO (%) ([9]; Heart): 1600%
Glycogen increase in DKO v. GAA-KO (%) ([9]; Quadriceps): 300%
Glycogen increase in DKO v. GAA-KO (%) ([9]; Triceps): 425%

Source: US8679478B2, “Methods of lysosomal storage disease therapy” (Duke University, priority 2010, dated 2014)
